The results in this text go back to US6388109B1, “14,15-cyclopropano steroids of the 19-norandrostane series, method for the production thereof and pharmaceutical preparations containing said compounds” (Jenapharm GmbH & Co. KG, priority 1998, dated 2002).

Assay [1] relates to pregnancy maintenance (gestagenic action). Description: pregnancy maintenance test in mice. Type of assay: in vivo. An excerpt: Another example is the compound of general formula I—in which R1 and R2 in each case represent a hydrogen atom, R3 represents an α-position hydrogen atom, R4 stands for a β-position hydroxy group, and the cyclopropane ring is in α-position—17β-hydroxy-14,α,15α-methylenestr-4-en-3-one (J 1129), which in the same test has an approximately 50-fold stronger gestagenic action in comparison to the reference substance norethisterone acetate.

The target in assay [2] is T1, progesterone receptor of the rabbit uterus (Oryctolagus cuniculus, UniProt P06186).
T1 construct: progesterone receptor of the rabbit uterus; from tissue; host or cells: rabbit uterus
T1 sequence (P06186 1-930): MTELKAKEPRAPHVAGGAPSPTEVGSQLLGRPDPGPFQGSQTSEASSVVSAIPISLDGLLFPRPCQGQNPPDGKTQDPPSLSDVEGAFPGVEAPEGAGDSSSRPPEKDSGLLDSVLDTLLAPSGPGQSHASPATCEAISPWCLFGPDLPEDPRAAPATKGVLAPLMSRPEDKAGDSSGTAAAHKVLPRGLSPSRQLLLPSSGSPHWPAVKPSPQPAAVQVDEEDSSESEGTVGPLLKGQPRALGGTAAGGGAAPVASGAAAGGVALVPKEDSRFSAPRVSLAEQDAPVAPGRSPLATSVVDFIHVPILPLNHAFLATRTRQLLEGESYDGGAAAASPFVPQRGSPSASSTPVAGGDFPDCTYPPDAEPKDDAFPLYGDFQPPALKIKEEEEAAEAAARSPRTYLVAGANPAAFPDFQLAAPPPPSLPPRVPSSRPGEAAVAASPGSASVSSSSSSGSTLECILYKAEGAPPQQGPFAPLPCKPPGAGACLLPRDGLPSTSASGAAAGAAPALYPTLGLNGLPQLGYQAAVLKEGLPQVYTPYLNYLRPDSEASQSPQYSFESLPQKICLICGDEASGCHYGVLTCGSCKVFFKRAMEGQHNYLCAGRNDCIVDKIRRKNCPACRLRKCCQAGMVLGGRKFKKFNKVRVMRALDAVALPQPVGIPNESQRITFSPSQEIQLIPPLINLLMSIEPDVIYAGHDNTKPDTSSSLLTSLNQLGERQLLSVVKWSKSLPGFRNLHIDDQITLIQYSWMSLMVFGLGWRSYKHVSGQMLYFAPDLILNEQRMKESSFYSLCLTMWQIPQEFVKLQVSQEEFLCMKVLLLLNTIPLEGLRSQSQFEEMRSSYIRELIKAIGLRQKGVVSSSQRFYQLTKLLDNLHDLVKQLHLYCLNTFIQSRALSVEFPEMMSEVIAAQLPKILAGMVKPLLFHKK
Description: binding to the progesterone receptor of the rabbit uterus (reference substance: progesterone). An excerpt:
Another example is the compound of general formula I—in which R1 and R2 in each case represent a hydrogen atom, R3 means an α-position chloromethyl group, R4 stands for a β-position hydroxy group, and the cyclopropane ring is in β-position—17α-chloromethyl-17β-hydroxy-14β,15β-methylenestr-4-en-3-one (Code J 1364), which binds with 710±80% to the progesterone receptor of the rabbit uterus (reference substance: progesterone).

The target in assay [3] is T2, androgen receptor of the rat prostate (Rattus norvegicus, UniProt P15207).
T2 construct: androgen receptor of the rat prostate; from tissue; host or cells: rat prostate
T2 sequence (P15207 1-902): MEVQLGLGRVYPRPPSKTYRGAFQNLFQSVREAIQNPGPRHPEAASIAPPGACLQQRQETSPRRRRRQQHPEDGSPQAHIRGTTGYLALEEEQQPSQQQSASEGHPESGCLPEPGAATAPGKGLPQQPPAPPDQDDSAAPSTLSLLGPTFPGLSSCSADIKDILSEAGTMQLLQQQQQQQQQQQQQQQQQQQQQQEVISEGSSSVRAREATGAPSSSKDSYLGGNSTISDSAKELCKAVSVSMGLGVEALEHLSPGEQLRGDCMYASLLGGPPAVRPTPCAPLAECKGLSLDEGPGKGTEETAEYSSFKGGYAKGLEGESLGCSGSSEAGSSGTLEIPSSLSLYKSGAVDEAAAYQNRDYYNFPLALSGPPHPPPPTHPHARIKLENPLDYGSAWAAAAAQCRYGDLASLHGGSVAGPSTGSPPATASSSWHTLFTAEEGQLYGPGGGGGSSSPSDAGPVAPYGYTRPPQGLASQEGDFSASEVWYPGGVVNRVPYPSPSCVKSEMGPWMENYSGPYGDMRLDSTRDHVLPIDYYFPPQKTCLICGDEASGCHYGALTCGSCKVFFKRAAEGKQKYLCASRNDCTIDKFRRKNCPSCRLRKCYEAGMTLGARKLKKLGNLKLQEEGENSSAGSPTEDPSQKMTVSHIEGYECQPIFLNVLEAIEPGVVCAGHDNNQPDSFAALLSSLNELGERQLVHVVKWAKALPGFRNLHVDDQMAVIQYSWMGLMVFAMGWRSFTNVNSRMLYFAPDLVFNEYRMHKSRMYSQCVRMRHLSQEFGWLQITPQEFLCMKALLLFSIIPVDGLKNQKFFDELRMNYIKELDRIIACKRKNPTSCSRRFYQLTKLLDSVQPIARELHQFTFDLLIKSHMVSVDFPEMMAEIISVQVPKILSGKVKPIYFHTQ
Description: binding to the androgen receptor of the rat prostate (reference substance: R 1881).

Take `C[C@]12CC[C@H]3[C@@H](CCC4=CC(=O)CC[C@@H]43)[C@@]13C[C@H]3C[C@@H]2O` [J 1129, 17β-Hydroxy-14α,15α-methylenestr-4-en-3-one]: the “gestagenic action in comparison to the reference substance norethisterone acetate” value in assay [1] (pregnancy maintenance test, stronger than norethisterone acetate) was “approximately 50 fold”. Further, the “binding to the progesterone receptor” value in assay [2] was found to be 42±5%. Besides, the “binding to the androgen receptor” value in assay [3] (reference substance: 17β-hydroxy-17α-methyl-estra-4,9,11-trien-3-one (R 1881)) was determined as 59±7%.
Consider `COC[C@]1(O)C[C@H]2C[C@]23[C@@H]2CCC4=CC(=O)CC[C@@H]4[C@H]2CC[C@]13C` [J 1222, 17β-Hydroxy-17α-(methoxymethyl)-14β,15β-methylenestr-4-en-3-one], for which the “effectiveness in the pregnancy maintenance test compared with norethisterone acetate” value in assay [1] (reference gestagen norethisterone acetate) was “just as effective”. For the same compound, the “binding to the progesterone receptor” value in assay [2] turned out to be 52±4%. In assay [3] (reference substance: R 1881), the “affinity to the androgen receptor (in words)” value is reported as “virtually no affinity”.
For the compound `CC12CCC3C4CCC(=O)C=C4CCC3C13CC3CC2(O)CCl` (stereo not drawn) [J 1364, 17α-Chloromethyl-17β-hydroxy-14β,15β-methylenestr-4-en-3-one], the “binding to the progesterone receptor” value in assay [2] came out at 710±80%.
